The values that follow come from patent US9505741B2, “Prolylhydroxylase inhibitors and methods of use” (CORNELL UNIVERSITY, priority 2010, dated 2016).

The subject of assay [1] is HIF ODD-luc reporter (HIF PHD-controlled stability). Put plainly: HTS with cell-based HIF ODD-luciferase reporter (SH-SY5Y-ODD-luc cells). Further details: species or system human. Particulars: three hours, SH-SY5Y-ODD-luc. The source says:
For HTS, a cell-based reporter system was employed. The cell-based reporter system was generated by fusing HIF-1a oxygen degradable domain (ODD) to luciferase (Safran M. et al., PNAS, 2006, 103, 105-110), which represents a cell-based capture assay monitored by the consumption of the luciferase-labeled HIF substrate under the conditions more physiological than in vitro test tubes. In accord with their structure activity relationship in reporter assay, the best “hits” stabilize HIF1, upregulate known HIF target genes in a human neuronal line, and exert neuroprotective effects in established model of oxidative stress in cortical neurons.
The reporter cell lines constitutively expressing ODD-luc (human neuroblastoma, SH-SY5Y) were stable for more than one year without significant change in their response to canonical PHD inhibitors such as DFO, dihydroxybenzoate (DHB), dimethyloxalylglycine (DMOG), and ciclopirox (FIG. 1B). In order to verify the specificity of luciferase changes as an assay for PHD activity, several control lines were developed: the control line expressing ODD-luc with proline 564 and 567 mutated to Ala generates luciferase fusion that cannot be degraded and experimentally identifies a ceiling level of ODD-luc protein attainable in these cells. The background signal for the wild-type HIF ODD-luc line (PYIP) corresponds to approximately 5-6% of the ODD-luc levels in the control line AYIA (double mutant P564A/P567A line) (FIG. 2). Treatment with 10 μM ciclopirox results in a 10-fold increase of a background signal for the wild-type ODD-luc reporter (PYIP line), i.e. reaches almost 50% of the threshold value (FIG. 2).
The assay was optimized for HTS format to provide Z values above 0.7. SH-SY5Y-ODD-luc cells were plated into 384—well white flat-bottom plates at 7,000 cell/well in 30 μl of serum and incubated overnight at 37° C., 5% CO2. The next day, compounds were added to a final concentration of 10 μM, plates were incubated for three hours at 37° C., and luciferase activity was measured using SteadyGlo™ reagent (Promega). Each plate had two internal standards, ciclopirox (100%), and DMSO (0%). The reporter activation (%) was calculated as a ratio (L−LDMSO)/(Lciclopirox−LDMSO). Hits were defined as those >25%. HTS of 85,000 compounds was performed at Rockefeller HTS Resource Center. 295 hits from the initial screen have been tested in quadruplicate, 160 were confirmed. Classification into 10 structural clusters has been done manually; 25 hits were singletons.
In general terms: A reporter such as luciferase makes a cellular process visible.

For the next assay, the system named is HIF1α protein. Briefly: HIF immunoblot in SH-SY5Y neuroblastoma cells. Particulars: 5 μM, three hours. The class given is cell-based, human. As to the method: After three hours of 5 μM drug treatment, cells were scraped in ice cold PBS and centrifuged at 1,000×g per 5 min. The pellet was used for nuclear extract preparation with the NE-PER Nuclear and Cytoplasmic Extraction kit (Pierce). After SDS-PAGE followed by transfer to a nitrocellulose membrane, the latter was incubated overnight at 4° C. with primary polyclonal antibody against HIF-1α (Upstate) and monoclonal antibody against β-actin (Sigma) (dilution 1:250 and 1:5000, respectively, in Odyssey Blocking Buffer). Secondary fluorophore conjugated Odyssey IRDye-680 and IRD-800 antibodies (LI-COR Biosciences) were added at 1:20,000 in Odyssey Blocking Buffer, and incubated for one hour at room temperature. Immunoreactive proteins were detected using Odyssey IR imaging system (LI-COR Biosciences).
(In western blotting, separated proteins are transferred to a membrane and probed.)

With `Oc1cccc2cccnc12` [8-hydroxyquinoline, reference compound], the “fold reporter activation over background” value in assay [1] (10 μM) was 4-5 fold. In assay [1] (Homo sapiens, 3 h, read-out: reporter activation (%) relative to ciclopirox (100%) and DMSO (0%)), the activation at 10 µM was in the range of 35 to 45%. Besides, the HIF1α protein stabilization entry with HIF1α protein is “not”.
